We go through 5 compounds from ChEMBL document CHEMBL3046957, “Synthesis of new oxadiazole derivatives as anti-inflammatory, analgesic, and antimicrobial agents” (2013).

Structures are written as SMILES.

Format in all cases: functional
Test [1] has as its system Aspergillus niger. The test is described as follows: Antifungal activity against Aspergillus niger assessed as growth inhibition at 100 ug/mL after 24 hr by cup-plate method. Conditions: read-out: DIZ.
Test [2] relates to Aspergillus niger. Description: Antifungal activity against Aspergillus niger assessed as growth inhibition at 50 ug/mL after 24 hr by cup-plate method. Conditions: read-out: DIZ.
For test [3], the system named is Candida albicans. Description: Antifungal activity against Candida albicans assessed as growth inhibition at 100 ug/mL after 24 hr by cup-plate method. The settings on record: read-out: DIZ.
The test system of test [4] is Candida albicans. Description: Antifungal activity against Candida albicans assessed as growth inhibition at 50 ug/mL after 24 hr by cup-plate method. Conditions: read-out: DIZ.
Test [5] concerns Pseudomonas aeruginosa. Description: Antibacterial activity against Pseudomonas aeruginosa assessed as growth inhibition at 100 ug/mL after 24 to 48 hr by cup-plate method. The settings on record: read-out: DIZ.
Test [6] has as its system Pseudomonas aeruginosa. Description: Antibacterial activity against Pseudomonas aeruginosa assessed as growth inhibition at 50 ug/mL after 24 to 48 hr by cup-plate method. The settings on record: read-out: DIZ.
Test [7] relates to Escherichia coli. Description: Antibacterial activity against Escherichia coli assessed as growth inhibition at 100 ug/mL after 24 to 48 hr by cup-plate method. Conditions: read-out: DIZ.
The test system of test [8] is Bacillus subtilis. Description: Antibacterial activity against Bacillus subtilis assessed as growth inhibition at 100 ug/mL after 24 to 48 hr by cup-plate method. The settings on record: read-out: DIZ.
Test [9] has as its system Escherichia coli. Description: Antibacterial activity against Escherichia coli assessed as growth inhibition at 50 ug/mL after 24 to 48 hr by cup-plate method. The settings on record: read-out: DIZ.
Test [10] concerns Bacillus subtilis. Description: Antibacterial activity against Bacillus subtilis assessed as growth inhibition at 50 ug/mL after 24 to 48 hr by cup-plate method. Conditions: read-out: DIZ.
Test [11] relates to Staphylococcus aureus. Description: Antibacterial activity against Staphylococcus aureus assessed as growth inhibition at 100 ug/mL after 24 to 48 hr by cup-plate method. The settings on record: read-out: DIZ.
Test [12] deals with Staphylococcus aureus. Description: Antibacterial activity against Staphylococcus aureus assessed as growth inhibition at 50 ug/mL after 24 to 48 hr by cup-plate method. The settings on record: read-out: DIZ.
Test [13] relates to Mus musculus. The test is described as follows: Analgesic activity in Swiss albino Mus musculus (mouse) assessed as latency time of heat-induced paw licking/jumping behaviour at 10 mg/kg after 4 hr by Eddy's hot plate method (reference value: 4.57 +/- 0.11 secs).
For test [14], the system named is Mus musculus. Description: Analgesic activity in Swiss albino Mus musculus (mouse) assessed as latency time of heat-induced paw licking/jumping behaviour at 10 mg/kg after 2 hr by Eddy's hot plate method (reference value: 4.86 +/- 0.18 secs).
Test [15] has as its system Mus musculus. Description: Analgesic activity in Swiss albino Mus musculus (mouse) assessed as latency time of heat-induced paw licking/jumping behaviour at 10 mg/kg after 1 hr by Eddy's hot plate method (reference value: 4.74 +/- 0.21 secs).
For test [16], the system named is Mus musculus. The test is described as follows: Analgesic activity in Swiss albino Mus musculus (mouse) assessed as latency time of heat-induced paw licking/jumping behaviour at 10 mg/kg after 0.5 hr by Eddy's hot plate method (reference value: 4.17 +/- 0.04 secs).
The subject of test [17] is Rattus norvegicus. The test is described as follows: Anti-inflammatory activity in Wistar albino Rattus norvegicus (rat) assessed as inhibition of carrageenan-induced paw edema at 10 mg/kg, po administered 30 min prior to carrageenan challenge measured after 3 hr by plethysmometric analysis relative to untreated control.
The subject of test [18] is Rattus norvegicus. The test is described as follows: Anti-inflammatory activity in Wistar albino Rattus norvegicus (rat) assessed as inhibition of carrageenan-induced paw edema at 10 mg/kg, po administered 30 min prior to carrageenan challenge measured after 2 hr by plethysmometric analysis relative to untreated control.
Test [19] has as its system Rattus norvegicus. Description: Anti-inflammatory activity in Wistar albino Rattus norvegicus (rat) assessed as inhibition of carrageenan-induced paw edema at 10 mg/kg, po administered 30 min prior to carrageenan challenge measured after 1.5 hr by plethysmometric analysis relative to untreated control.
The test system of test [20] is Rattus norvegicus. The test is described as follows: Anti-inflammatory activity in Wistar albino Rattus norvegicus (rat) assessed as inhibition of carrageenan-induced paw edema at 10 mg/kg, po administered 30 min prior to carrageenan challenge measured after 1 hr by plethysmometric analysis relative to untreated control.
Test [21] deals with Rattus norvegicus. The test is described as follows: Anti-inflammatory activity in Wistar albino Rattus norvegicus (rat) assessed as inhibition of carrageenan-induced paw edema at 10 mg/kg, po administered 30 min prior to carrageenan challenge measured after 0.5 hr by plethysmometric analysis relative to untreated control.

As for `COc1ccc(F)cc1-c1cccc(-c2nn(CCO)c(=O)o2)c1`, the zone of inhibition at 100 µg/mL with Aspergillus niger [1] was determined as 10 mm; in the test on Candida albicans [3], 8 mm; with Pseudomonas aeruginosa [5], 20 mm; in the test on Escherichia coli [7], 19 mm; in the test with Bacillus subtilis [8] it was 18 mm; with Staphylococcus aureus [11] it was 16 mm. Also, the zone of inhibition at 50 µg/mL in the test with Aspergillus niger [2] came to 9 mm; with Candida albicans [4] it was 4 mm; with Pseudomonas aeruginosa [6], 18 mm; in the test with Escherichia coli [9], 18 mm; in the test on Bacillus subtilis [10], 13 mm; in the test with Staphylococcus aureus [12], 14 mm. For the same compound, the Time with Mus musculus [13] is reported as 5.59 s; in the test on Mus musculus [14] it was 6.88 s; in the test with Mus musculus [15], 4.36 s; in the test with Mus musculus [16], 4.96 s. Besides, the inhibition in vivo at 10 mg/kg in the test on Rattus norvegicus [17] worked out at 75%; in the test on Rattus norvegicus [18], 69%; in the test with Rattus norvegicus [19] it was 53%; in the test on Rattus norvegicus [20], 41%; in the test on Rattus norvegicus [21], 28%.

With `COc1ccc(F)cc1-c1cccc(-c2nn(CCOC3CCCCO3)c(=O)o2)c1` (stereo not given), the zone of inhibition at 100 µg/mL is 11 mm with Aspergillus niger [1]; 9 mm in the test on Candida albicans [3]; 21 mm in the test with Pseudomonas aeruginosa [5]; 16 mm with Escherichia coli [7]; 15 mm in the test with Bacillus subtilis [8]; 14 mm in the test with Staphylococcus aureus [11]. In addition, the zone of inhibition at 50 µg/mL with Aspergillus niger [2] was 8 mm; with Candida albicans [4], 9 mm; in the test with Pseudomonas aeruginosa [6], 18 mm; in the test on Escherichia coli [9] it was 9 mm; in the test with Bacillus subtilis [10], 11 mm; in the test with Staphylococcus aureus [12], 9 mm. In addition, the Time with Mus musculus [13] came to 4.21 s; with Mus musculus [14], 4.58 s; in the test with Mus musculus [15] it was 4.21 s; in the test with Mus musculus [16], 4.81 s. The inhibition in vivo at 10 mg/kg in the test on Rattus norvegicus [17] turned out to be 65%; with Rattus norvegicus [18] it was 56%; in the test with Rattus norvegicus [19], 44%; in the test with Rattus norvegicus [20], 32%; with Rattus norvegicus [21], 16%.

Take `COc1ccc(F)cc1-c1cccc(-c2nn(CCCN)c(=O)o2)c1`: the zone of inhibition at 100 µg/mL stood at 12 mm with Aspergillus niger [1]; 12 mm with Candida albicans [3]; 21 mm with Pseudomonas aeruginosa [5]; 16 mm in the test with Escherichia coli [7]; 19 mm in the test on Bacillus subtilis [8]; 17 mm in the test with Staphylococcus aureus [11]. For the same compound, the zone of inhibition at 50 µg/mL in the test on Aspergillus niger [2] is 10 mm; with Candida albicans [4], 5 mm; with Pseudomonas aeruginosa [6], 17 mm; in the test on Escherichia coli [9], 15 mm; in the test on Bacillus subtilis [10], 12 mm; in the test on Staphylococcus aureus [12] it was 12 mm. Also, the Time in the test on Mus musculus [13] is 5.49 s; with Mus musculus [14] it was 6.84 s; in the test on Mus musculus [15] it was 4.62 s; in the test on Mus musculus [16], 4.93 s. Moreover, the inhibition in vivo at 10 mg/kg with Rattus norvegicus [17] stood at 77%; with Rattus norvegicus [18] it was 66%; with Rattus norvegicus [19], 55%; in the test with Rattus norvegicus [20], 43%; in the test on Rattus norvegicus [21] it was 29%.

In the case of `COc1ccc(F)cc1-c1cccc(-c2nn(CCCC#N)c(=O)o2)c1`, the zone of inhibition at 100 µg/mL in the test with Aspergillus niger [1] is 14 mm; with Candida albicans [3], 16 mm; in the test on Pseudomonas aeruginosa [5] it was 14 mm; in the test with Escherichia coli [7] it was 16 mm; in the test with Bacillus subtilis [8] it was 14 mm; in the test on Staphylococcus aureus [11], 14 mm. The zone of inhibition at 50 µg/mL with Aspergillus niger [2] amounted to 12 mm; with Candida albicans [4], 10 mm; in the test with Pseudomonas aeruginosa [6], 11 mm; in the test with Escherichia coli [9], 11 mm; in the test on Bacillus subtilis [10], 13 mm; in the test on Staphylococcus aureus [12], 10 mm. Besides, the Time is 7.08 s with Mus musculus [13], 7.11 s in the test with Mus musculus [14], 5.64 s in the test on Mus musculus [15] and 5.71 s in the test with Mus musculus [16]. Moreover, the inhibition in vivo at 10 mg/kg came to 85% with Rattus norvegicus [17]; 71% in the test with Rattus norvegicus [18]; 59% in the test on Rattus norvegicus [19]; 44% in the test on Rattus norvegicus [20]; 29% with Rattus norvegicus [21].

Consider `COc1ccc(F)cc1-c1cccc(-c2nn(CCOS(=O)(=O)c3ccc(Cl)c(Cl)c3)c(=O)o2)c1`, for which the zone of inhibition at 100 µg/mL turned out to be 10 mm with Aspergillus niger [1]; 9 mm with Candida albicans [3]; 15 mm with Pseudomonas aeruginosa [5]; 19 mm with Escherichia coli [7]; 17 mm with Bacillus subtilis [8]; 15 mm with Staphylococcus aureus [11]. For the same compound, the zone of inhibition at 50 µg/mL in the test on Aspergillus niger [2] is 7 mm; with Candida albicans [4], 3 mm; in the test with Pseudomonas aeruginosa [6], 12 mm; with Escherichia coli [9], 12 mm; with Bacillus subtilis [10] it was 10 mm; in the test with Staphylococcus aureus [12], 12 mm. In addition, the Time in the test on Mus musculus [13] is 5.55 s; in the test with Mus musculus [14] it was 5.72 s; with Mus musculus [15] it was 4.48 s; with Mus musculus [16], 4.95 s. Further, the inhibition in vivo at 10 mg/kg in the test with Rattus norvegicus [17] was found to be 66%; in the test on Rattus norvegicus [18], 64%; in the test with Rattus norvegicus [19], 51%; in the test on Rattus norvegicus [20] it was 39%; in the test with Rattus norvegicus [21], 25%.
